Molecular target: PI3K γ (Homo sapiens, UniProt P48736)
Test: PI3 kinase phosphorylation assay (Biological Method 1), Ki γ
Assay type: biochemical
Protocol: The compounds of the invention were synthesized according to the examples provided above. PI3K inhibitory (IC50) values of the compounds were determined according to Biological Method 1.
Assay 1: Homogenous Solution Phase Assay
Compounds to be tested are dissolved in DMSO and directly distributed into 384-well flashplates at 1.25 μL per well. To start the reaction, 20 μL of 6 nM PI3 kinase are added into each well followed by 20 μL of 400 nM ATP containing a trace of radiolabeled ATP and 900 nM 1-alpha-phosphatidylinositol (PI). The plates are briefly centrifuged to remove any air gap. The reaction is performed for 15 minutes and then stopped by the addition of 20 μL of 100 mM EDTA. The stopped reaction is incubated overnight at RT to allow the lipid substrate to bind by hydrophobic interaction to the surface of the flashplate. The liquid in the wells is then washed away, and the labeled substrate is detected with scintillation counting.
Assay 2: One Step Solid Phase Assay
This method is similar to Assay 1 except that the lipid substrate (1-alpha-phosphatidylinositol (PI)) is first dissolved in a coating buffer and incubated on flashplate at room temperature overnight to allow the lipid substrate to bind by hydrophobic interaction to the surface of the flashplate. Unbound substrate is then washed away. On the day of assay, 20 μL of 6 nM PI3 kinase are added into each well followed by 20 μL of 400 nM ATP containing trace of radiolabeled ATP. Compounds are added together with enzyme and ATP to the lipid-coated plates. The plates are briefly centrifuged to remove any air gap. The reaction is performed for two to three hours. The reaction is stopped by addition of 20 μL of 100 mM EDTA or by immediate plate washing. Phosphorylated lipid substrate is detected by scintillation counting.
Assay 3: ATP Depletion Assay
Compounds to be tested are dissolved in DMSO and directly distributed into a black 384-well plate at 1.25 μL per well. To start the reaction, 25 μL of 10 nM PI3 kinase and 5 μg/mL 1-alpha-phosphatidylinositol (PI) are added into each well followed by 25 μL of 2 μM ATP. The reaction is performed until approx 50% of the ATP is depleted, and then stopped by the addition of 25 μL of KinaseGlo solution. The stopped reaction is incubated for 5 minutes and the remaining ATP is then detected via luminescence.

[1] = Table 2, compounds of formula X
[2] = Table 3, compounds of formula XI

Chain of PI3K γ (P48736 whole entry): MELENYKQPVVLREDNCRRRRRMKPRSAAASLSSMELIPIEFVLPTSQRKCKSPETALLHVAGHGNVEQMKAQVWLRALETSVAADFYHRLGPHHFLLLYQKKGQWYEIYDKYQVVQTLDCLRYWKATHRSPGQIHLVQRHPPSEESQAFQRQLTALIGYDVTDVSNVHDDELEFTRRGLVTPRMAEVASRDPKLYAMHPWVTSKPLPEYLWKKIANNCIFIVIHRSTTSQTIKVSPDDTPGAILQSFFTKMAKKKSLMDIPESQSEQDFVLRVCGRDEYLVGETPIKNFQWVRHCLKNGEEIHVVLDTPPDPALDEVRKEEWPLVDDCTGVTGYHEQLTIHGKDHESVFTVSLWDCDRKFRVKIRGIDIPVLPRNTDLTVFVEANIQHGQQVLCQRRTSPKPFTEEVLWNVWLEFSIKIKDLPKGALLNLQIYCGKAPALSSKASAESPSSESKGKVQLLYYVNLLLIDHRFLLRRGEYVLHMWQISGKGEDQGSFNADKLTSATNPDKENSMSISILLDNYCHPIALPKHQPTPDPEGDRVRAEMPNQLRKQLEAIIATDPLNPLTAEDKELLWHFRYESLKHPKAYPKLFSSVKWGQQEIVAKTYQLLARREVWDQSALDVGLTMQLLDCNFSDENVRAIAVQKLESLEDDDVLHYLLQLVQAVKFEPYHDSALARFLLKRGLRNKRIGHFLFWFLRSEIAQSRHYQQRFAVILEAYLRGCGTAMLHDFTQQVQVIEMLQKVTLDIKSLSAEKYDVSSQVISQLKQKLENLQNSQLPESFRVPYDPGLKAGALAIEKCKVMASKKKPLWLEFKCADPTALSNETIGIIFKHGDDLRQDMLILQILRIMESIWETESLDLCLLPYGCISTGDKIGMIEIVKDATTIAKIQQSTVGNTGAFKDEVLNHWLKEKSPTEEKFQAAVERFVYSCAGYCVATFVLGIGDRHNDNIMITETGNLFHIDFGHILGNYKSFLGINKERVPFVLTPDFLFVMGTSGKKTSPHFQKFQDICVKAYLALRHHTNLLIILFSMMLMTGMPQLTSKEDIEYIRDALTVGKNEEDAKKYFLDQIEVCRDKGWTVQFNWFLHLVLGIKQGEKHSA

Compound | Ki [1] [µM] | Ki [2] [µM] | other results
COc1cccc(-c2ccc3nc(NC(=O)NCCc4nnn(C(C)C)n4)cn3c2)c1 [Example 1-29, 1-[2-(2-Isopropyl-2H-tetrazol-5-yl)-ethyl]-3-[6-(3-methoxy-phenyl)-imidazo[1,2-a]pyridin-2-yl]-u] | 1.03 |  | 
CCn1nnc(CCNC(=O)Nc2cn3cc(-c4cnc5ccccc5c4)ccc3n2)n1 [Example 1-30, 1-[2-(2-Ethyl-2H-tetrazol-5-yl)-ethyl]-3-(6-quinolin-3-yl-imidazo[1,2-a]pyridin-2-yl)-urea] | 0.57 |  | 
CC(C)n1nnc(CCNC(=O)Nc2cn3cc(-c4ccccc4)ccc3n2)n1 [Example 1-31, 1-[2-(2-Isopropyl-2H-tetrazol-5-yl)-ethyl]-3-(6-phenyl-imidazo[1,2-a]pyridin-2-yl)-urea] | 0.423 |  | 
CCn1nnc(CCNC(=O)Nc2cn3cc(-c4cncc(C(F)(F)F)c4)ccc3n2)n1 [Example 1-34, 1-[2-(2-Ethyl-2H-tetrazol-5-yl)-ethyl]-3-[6-(5-trifluoromethyl-pyridin-3-yl)-imidazo[1,2-a]pyridin-2-yl]-urea] | 0.007 |  | 
O=C(NCCc1nnn(CCF)n1)Nc1cn2cc(-c3cncc(C(F)(F)F)c3)ccc2n1 [Example 1-35, 1-{2-[2-(2-Fluoro-ethyl)-2H-tetrazol-5-yl]-ethyl}-3-[6-(5-trifluoromethyl-pyridin-3-yl)-imidazo[1,2-a]pyridin-2-yl]-urea] | 0.002 |  | 
Cn1nnc(CCNC(=O)Nc2cn3cc(-c4cncc(C(F)(F)F)c4)ccc3n2)n1 [Example 1-38, 1-[2-(2-Methyl-2H-tetrazol-5-yl)-ethyl]-3-[6-(5-trifluoromethyl-pyridin-3-yl)-imidazo[1,2-a]pyridin-2-yl]-urea] | 0.012 |  | 
Cc1ccccc1-c1cncc(-c2ccc3nc(NC(=O)NCCc4nnn(C(C)C)n4)cn3c2)c1 [Example 1-39, 1-[2-(2-Isopropyl-2H-tetrazol-5-yl)-ethyl]-3-[6-(5-o-tolyl-pyridin-3-yl)-imidazo[1,2-a]pyridin-2-yl]urea] | 1.12 |  | 
CCn1nnc(CCNC(=O)Nc2cn3cc(-c4cnn(C)c4)ccc3n2)n1 [Example 1-40, 1-[2-(2-Ethyl-2H-tetrazol-5-yl)-ethyl]-3-[6-(1-methyl-1H-pyrazol-4-yl)-imidazo[1,2-a]pyridin-2-yl]urea] | 0.456 |  | 
CCn1nnc(CCNC(=O)Nc2cn3cc(-c4cncc5ccccc45)ccc3n2)n1 [Example 1-42, 1-[2-(2-Ethyl-2H-tetrazol-5-yl)-ethyl]-3-(6-isoquinolin-4-yl-imidazo[1,2-a]pyridin-2-yl)-urea] | 0.158 |  | 
CC(=O)c1cncc(-c2ccc3nc(NC(=O)NCCc4nnn(C(C)C)n4)cn3c2)c1 [Example 1-43, 1-[6-(5-Acetyl-pyridin-3-yl)-imidazo[1,2-a]pyridin-2-yl]-3-[2-(2-isopropyl-2H-tetrazol-5-yl)-ethyl]urea] | 0.008 |  | 
CCn1nnc(CCNC(=O)Nc2cn3cc(Br)ccc3n2)n1 [Example 1-45, 1-(6-Bromo-imidazo[1,2-a]pyridin-2-yl)-3-[2-(2-ethyl-2H-tetrazol-5-yl)-ethyl]-urea] | 0.911 |  | 
Cc1cc(NC(=O)CCNC(=O)Nc2cn3cc(Br)ccc3n2)no1 [Example 1-46, 3-[3-(6-Bromo-imidazo[1,2-a]pyridin-2-yl)-ureido]-N-(5-methyl-isoxazo-3-yl)-propionamide] | 4.98 |  | 
CCn1nnc(CCNC(=O)Nc2cn3nc(-c4cncc(C(F)(F)F)c4)ccc3n2)n1 [Example 3-1, 1-[2-(2H-Ethyl-2H-tetrazole-5-yl)-ethyl]-3-[6-(5-trifluoromethyl-pyridin-3-yl)-imidazo[1,2-b]pyridazin-2-yl]-urea] |  |  | Ki (Table 4): 0.012 µM
CCn1nnc(CCNC(=O)Nc2cn3nc(-c4cncc(C#N)c4)ccc3n2)n1 [Example 3-2, 1-[6-(5-Cyano-pyridin-3-yl)-imidazo[1,2-b]pyridazin-2-yl]-3-[2-(2-ethyl-2H-tetrazol-5-yl)-ethyl]-urea] |  |  | Ki (Table 4): 0.031 µM
CCn1nnc(CCNC(=O)Nc2cn3nc(-c4cccnc4)ccc3n2)n1 [Example 3-3, 1-[6-(pyridin-3-yl)-imidazo[1,2-b]pyridazin-2-yl]-3-[2-(2-ethyl-2H-tetrazol-5-yl)-ethyl]-urea] |  |  | Ki (Table 4): 0.031 µM
CCn1nnc(CCNC(=O)Nc2cn3cc(-c4cncc(C(F)(F)F)c4)ncc3n2)n1 [Example 3-4, 1-[2-(2-Ethyl-2H-tetrazol-5-yl)-ethyl]-3-[6-(5-trifluoromethyl-pyridin-3-yl)-imidazo[1,2-a]pyrazin-2-yl]-urea] |  |  | Ki (Table 4): 0.027 µM
CCn1nnc(CCNC(=O)Nc2cn3cc(-c4cncc(C#N)c4)ncc3n2)n1 [Example 3-5, 1-[6-(5-Cyano-pyridin-3-yl)-imidazo[1,2-a]pyrazin-2-yl]-3-[2-(2-ethyl-2H-tetrazol-5-yl)-ethyl]-urea] |  |  | Ki (Table 4): 0.098 µM
CCn1nnc(CCNC(=O)Nc2cn3cc(-c4cccnc4)ncc3n2)n1 [Example 3-6, 1-[2-(2-Ethyl-2H-tetrazol-5-yl)-ethyl]-3-(6-pyridin-3-yl-imidazo[1,2-a]pyrazin-2-yl)-urea] |  |  | Ki (Table 4): 0.082 µM
CCn1nnc(CCNC(=O)Nc2nc3ccc(-c4cncc(C(F)(F)F)c4)cn3n2)n1 [Example 3-7, 1-[2-(2-Ethyl-2H-tetrazol-5-yl)-ethyl]-3-[6-(5-trifluoromethyl-pyridin-3-yl)-[1,2,4]triazolo[1,5-a]pyridin-2-yl]-urea] |  |  | Ki (Table 4): 0.376 µM
CCn1nnc(CCNC(=O)Nc2nc3ccc(-c4cccnc4)cn3n2)n1 [Example 3-8, 1-[2-(2-Ethyl-2H-tetrazol-5-yl)-ethyl]-3-(6-pyridin-3-yl-[1,2,4]triazolo[1,5-a]pyridin-2-yl)-urea] |  |  | Ki (Table 4): 0.099 µM

More lines, main results first:

Ki [1] [µM] | Ki [2] [µM] | Compound | other results
 | 0.008 | O=C(NCCc1nnn(CCF)n1)Nc1nc2ccc(-c3cccnc3)cc2s1 [Example 2-1, 1-{2-[2-(2-Fluoro-ethyl)-2H-tetrazol-5-yl]-ethyl}-3-(6-pyridin-3-yl-benzothiazol-2-yl)-urea] | 
 | 0.02 | COc1ccc(-c2ccc3nc(NC(=O)NCCc4nnn(CCF)n4)sc3c2)cn1 [Example 2-2, 1-{2-[2-(2-Fluoro-ethyl)-2H-tetrazol-5-yl]-ethyl}-3-[6-(6-methoxy-pyridin-3-yl)-benzothiazol-2-yl]-urea] | 
 | 0.038 | COc1ccc(-c2ccc3nc(NC(=O)NCCN(C)C)sc3c2)cn1 [Example 2-3, 1-(2-Dimethylamino-ethyl)-3-[6-(6-methoxy-pyridin-3-yl)-benzothiazol-2-yl]urea] | 
 | 0.038 | COc1ccc(-c2ccc3nc(NC(=O)NCCO)sc3c2)cn1 [Example 2-4, 1-(2-Hydroxy-ethyl)-3-[6-(6-methoxy-pyridin-3-yl)-benzothiazol-2-yl]-urea] | 
 | 0.149 | COc1ccc(-c2ccc3nc(NC(=O)NCc4cccnc4)sc3c2)cn1 [Example 2-5, 1-[6-(6-Methoxy-pyridin-3-yl)-benzothiazol-2-yl]-3-pyridin-3-ylmethyl-urea] | 
 | 0.406 | CCNC(=O)Nc1nc2ccc(-c3ccc(OC)nc3)cc2s1 [Example 2-6, 1-Ethyl-3-[6-(6-methoxy-pyridin-3-yl)-benzothiazol-2-yl]urea] | 
 | 0.0055 | O=C(NCCc1nnn(CCF)n1)Nc1nc2ccc(-c3cncc(C(=O)N4CCOCC4)c3)cc2s1 [Example 2-7, 1-{2-[2-(2-Fluoro-ethyl)-2H-tetrazol-5-yl]-ethyl}-3-{6-[5-(morpholine-4-carbonyl)-pyridin-3-yl]-benzothiazol-2-yl}-urea] | 
 | 0.016 | O=C(NCCc1nnn(CCF)n1)Nc1nc2ccc(-c3cncc(C(F)(F)F)c3)cc2s1 [Example 2-8, 1-{2-[2-(2-Fluoro-ethyl)-2H-tetrazol-5-yl]-ethyl}-3-[6-(5-trifluoromethyl-pyridin-3-yl)-benzothiazol-2-yl]urea] | 
 | 0.06 | CCn1nnc(CCNC(=O)Nc2nc3ccc(-c4cncc(C(F)(F)F)c4)cc3s2)n1 [Example 2-9, 1-[2-(2-Ethyl-2H-tetrazol-5-yl)-ethyl]-3-[6-(5-trifluoromethyl-pyridin-3-yl)-benzothiazol-2-yl]-urea] | 
 | 0.092 | CC(C)n1nnc(CCNC(=O)Nc2nc3ccc(-c4cncc(C(F)(F)F)c4)cc3s2)n1 [Example 2-10, 1-[2-(2-Isopropyl-2H-tetrazol-5-yl)-ethyl]-3-[6-(5-trifluoromethyl-pyridin-3-yl)-benzothiazol-2-yl]urea] | 
 | 0.242 | CCc1nnn(CCNC(=O)Nc2nc3ccc(-c4cncc(C(F)(F)F)c4)cc3s2)n1 [Example 2-11, 1-[2-(5-Ethyl-tetrazol-2-yl)-ethyl]-3-[6-(5-trifluoromethyl-pyridin-3-yl)-benzothiazol-2-yl]urea] | 
 | 0.142 | CCn1cnc(CCNC(=O)Nc2nc3ccc(-c4cncc(C(F)(F)F)c4)cc3s2)c1 [Example 2-12, 1-[2-(1-Ethyl-1H-imidazol-4-yl)-ethyl]-3-[6-(5-trifluoromethyl-pyridin-3-yl)-benzothiazol-2-yl]-urea] | 
